What all share (assay): growth of human tumour cells (NCI), 48 h
Experiment [1] relates to DU-145 prostate.
Experiment [2] concerns HT29 colon.
Experiment [3] has as its system KM12 colon.
The subject of experiment [4] is OVCAR-3 ovarian.
Experiment [5] concerns OVCAR-5 ovarian.
Experiment [6] relates to SF-268 CNS.
For experiment [7], the system named is SF-295 CNS.
Experiment [8] concerns SF-539 CNS.
In experiment [9] the test system is SK-MEL-5 melanoma.
Experiment [10] deals with UO-31 renal.

Molecules are shown by their SMILES. Where “and” joins values, the source holds several entries; their conditions need not be identical. Identical values can stand only once.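 Results reflect a 48-hour exposure of cells in 96-well plates to compound at five concentrations. GI50: concentration for 50% inhibition of growth. TGI is the concentration that stops growth completely.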

13 molecules from PubChem BioAssay (NCI) can be followed below.

Take `COCC(=O)OC1CCn2c1nc1c2C(=O)C(C)=C(NC(C)=O)C1=O` (stereo not given): the TGI in experiment [1] is 22.2 µM; in [2] it was 29.5 µM; in experiment [3], 30.5 µM; in [4], 5.23 µM and 4.82 µM; in experiment [5], 21.6 µM; in experiment [6] it was 9 µM and 22.4 µM. For the same molecule, the TGI is 31.7 µM in experiment [7]; 3.85 µM and 9.32 µM in experiment [8]; 26.8 µM in experiment [9]; 26.2 µM in experiment [10]. For the same molecule, the GI50 in experiment [4] was 1.9 µM; in experiment [5], 5.91 µM; in experiment [6] it was 3.07 µM; in experiment [8], 2.14 µM.
For the molecule `COc1ccc(CCCCl)c(C2=NCCc3ccccc32)c1`, the TGI in experiment [1], in [2], in experiment [3], in [4], in experiment [5] and in experiment [6] was more than 100 µM each time. The TGI in experiment [7] was more than 100 µM; in experiment [8], more than 100 µM; in experiment [9], 45 µM; in experiment [10] it was more than 100 µM.
In the case of `COc1cc(OC)c(C2c3cc4c(cc3OC(N3CCOCC3)C2C)OCO4)c(OC)c1` (stereo not given), the TGI in experiment [1], in experiment [2], in experiment [3], in [4], in experiment [5] and in experiment [6] was more than 100 µM throughout. The TGI in [7], in experiment [8], in experiment [9] and in experiment [10] was more than 100 µM in each case.
Take `COc1ccc(/C=N/Nc2nc3ccccc3c(=O)n2-c2ccccc2)c(OCc2ccccc2)c1`: the TGI in experiment [1], in [2], in experiment [3], in experiment [4], in [5] and in experiment [6] was more than 100 µM each time. Besides, the TGI in experiment [7], in experiment [8], in experiment [9] and in experiment [10] was more than 100 µM each time.
Turning to `CC(O)(C(=O)N(O)c1ccc(Cl)cc1)c1ccc(Cl)cc1` (stereo not given), the TGI in experiment [1] was more than 100 µM; in experiment [2], more than 100 µM; in experiment [3], more than 100 µM; in [4] it was 72.8 µM; in experiment [5], more than 100 µM; in [6], more than 100 µM. The TGI in [7] was 92.4 µM; in [8], more than 100 µM; in [9], 48.9 µM; in experiment [10], 42.4 µM.
On to `CC1OC(n2cc(F)c(=O)[nH]c2=O)C(O[Si](C)(C)C(C)(C)C)C1O[Si](C)(C)C(C)(C)C` (stereo not given), for which the TGI in experiment [1] turned out to be 26.8 µM; in experiment [2], 23.3 µM; in experiment [3], 26.1 µM; in experiment [4], 37.3 µM; in experiment [5], 31.1 µM; in [6], 29.8 µM. The TGI in experiment [7] was found to be 27.1 µM; in experiment [8], 28.7 µM; in [9], 28.2 µM; in [10] it was 25.4 µM.
In the case of `CC(C)(C)c1ccc2c(c1)OCc1n[nH]c(n1)COc1cc(C(C)(C)C)ccc1OCCOCCO2`, the TGI in [1] came out at 20.6 µM; in [2], 10.3 µM; in [3], 15.1 µM; in experiment [4] it was 7.47 µM; in [5] it was 22.6 µM; in [6] it was 17.3 µM. Moreover, the TGI came out at 12.5 µM in experiment [7], 21.5 µM in [8], 4.68 µM in experiment [9] and 13.1 µM in experiment [10].
On to `Cc1cc2c(cc1Cl)SC(NNc1cnc3ccccc3n1)=NS2(=O)=O`, for which the TGI in experiment [1], in experiment [2], in experiment [3], in [4], in experiment [5] and in experiment [6] was more than 100 µM throughout. The TGI is more than 100 µM in experiment [7], 87 µM in [8], more than 100 µM in experiment [9] and more than 100 µM in experiment [10].
Regarding `CN(C)c1nc(=NCc2ccccn2)ss1`, the TGI in experiment [1], in experiment [2], in experiment [3], in experiment [4], in experiment [5] and in [6] was more than 10 µM throughout. Besides, the TGI in experiment [7], in experiment [8], in experiment [9] and in [10] was more than 10 µM in each case.
With `CCOC(=O)c1c(NC(=S)Nc2ccc(C)cc2)sc2c1CCN(C)C2`, the TGI in [1], in experiment [2], in experiment [3], in experiment [4], in experiment [5] and in experiment [6] was more than 100 µM in each case. Moreover, the TGI in [7], in [8], in experiment [9] and in experiment [10] was more than 100 µM throughout.
In the case of `c1ccc(-c2ccc(N=NN3CCCC3)cc2)cc1`, the TGI in experiment [1], in [3], in experiment [4], in [5], in [6] and in experiment [7] was more than 100 µM in each case. Besides, the TGI in experiment [8], in [9] and in experiment [10] was more than 100 µM in each case.
On to `C(=N/Nc1ccc(-c2nc3ccccc3[nH]2)cc1)/c1c(-c2ccccc2)[nH]c2ccccc12`, for which the TGI was more than 100 µM in [1]; more than 100 µM in experiment [3]; 0.591 µM in experiment [4]; more than 100 µM in experiment [6]; 12.7 µM in experiment [7]; 55.2 µM in [8]. In addition, the TGI in [9] and in experiment [10] was more than 100 µM each time.
Regarding `N/C(CSCCSC/C(N)=N/O)=N\O`, the TGI in experiment [1], in experiment [2], in experiment [3], in [4], in experiment [5] and in experiment [6] was more than 100 µM in each case. For the same molecule, the TGI in experiment [8], in experiment [9] and in experiment [10] was more than 100 µM each time.
